Data on 2 compounds can be found in US5425942A, “Polyfunctinal protease” (Otsuka Pharamceutical Co., Ltd., priority 1988, dated 1995).

This test deals with T1, human proteasome (Homo sapiens, UniProt P28072+P28074+Q99436).
T1 construct: The desired homogeneous human proteasome was thus recovered in the fraction at about 340 mM KCl; from tissue
The experiment in a line: Activity inhibition of human proteasome by protease inhibitors. Format: biochemical.

Several values for one entry are separate records, joined by “and”; a condition that tells them apart may be missing. Equal entries are not always repeated. Where two headings read alike, the source gives them in different places.

By inhibition is commonly meant the percentage by which the read-out fell short of the control.

In the case of `CCN1C(=O)C=CC1=O` [C, N-ethylmaleimide], the “Inhibition Rate (%) by Inhibitor” value was 96% and 99%. Where the note is “read-out: Inhibition Rate (%) by Inhibitor”, the inhibition at 10000 µM was determined as 88%.

Turning to Chymostatin [B], the “Inhibition Rate (%) by Inhibitor” value (substrate Cbz-Ala-Arg-Arg-MNA, inhibitor 50 μg/ml, 2 μg proteasome, room temperature, one hour, optimal pH) was found to be 19%; the “Inhibition Rate (%) by Inhibitor” value (substrate Cbz-Leu-Leu-Glu-NA, inhibitor 50 μg/ml, 2 μg proteasome, room temperature, one hour, optimal pH) worked out at 0%; the “Inhibition Rate (%) by Inhibitor” value (substrate Suc-Leu-Leu-Val-Tyr-MCA, inhibitor 50 μg/ml, 2 μg proteasome, room temperature, one hour, optimal pH) stood at 75%.
